The record followed here is US10577363B2, “Substituted piperidine compounds” (EPIZYME, INC., priority 2014, dated 2020).

The target in experiment [1] is T1, SMYD3 (Homo sapiens (Human), UniProt Q9H7B4). The experiment can be described thus: SMYD3 cell assay (Trimethyl-MEKK2 In-Cell Western in 293T/17 cells). The format is cell-based. Conditions: read-out: SMYD3 Cell IC50*. Put shortly:
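In-Cell Western readout: methanol-fixed cells stained for trimethyl-MEKK2 and flag tag, ratio per well normalized to DMSO and background controls.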

Experiment [2] has as its target T1, SMYD3. The experiment in a line: SMYD3 biochemical assay (SPA, 3H-SAM methylation of MEKK2 protein substrate). The conditions noted are these: read-out: SMYD3 Biochem IC50*. The gist of the method: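 Enzyme: untagged full-length human SMYD3 from E. coli; substrate GST-tagged MEKK2 from insect cells. Buffer 25 mM Tris-Cl pH 8.0, 1 mM TCEP, 0.005% BSG/Tween 20. 30 min compound–enzyme preincubation at RT; 3H-SAM/MEKK2 start; stop with cold SAM (100 uM final); SPA readout in cpm.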

T1 sequence (Q9H7B4 whole entry): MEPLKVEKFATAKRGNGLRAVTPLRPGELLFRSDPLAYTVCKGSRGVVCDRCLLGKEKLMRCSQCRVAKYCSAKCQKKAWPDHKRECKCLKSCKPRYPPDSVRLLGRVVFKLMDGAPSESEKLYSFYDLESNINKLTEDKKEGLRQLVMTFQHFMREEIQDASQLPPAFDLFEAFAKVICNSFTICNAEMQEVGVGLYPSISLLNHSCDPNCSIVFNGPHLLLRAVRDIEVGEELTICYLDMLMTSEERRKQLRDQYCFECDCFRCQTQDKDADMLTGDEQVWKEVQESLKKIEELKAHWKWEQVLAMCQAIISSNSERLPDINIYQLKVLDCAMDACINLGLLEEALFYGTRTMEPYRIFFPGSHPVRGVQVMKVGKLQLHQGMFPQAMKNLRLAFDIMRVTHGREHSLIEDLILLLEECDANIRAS

A word on the IC50: it is the concentration that gives 50% inhibition. Take `O=C(N[C@H]1C[C@H]2CC[C@@H](C1)N2S(=O)(=O)[C@H]1CC[C@H](NCCO)CC1)c1cc(C2CC2)on1` [compound 768, 5-cyclopropyl-N-((1R,3R,5S)-8-(((1R,4R)-4-((2-hydroxyethyl)amino)cyclohexyl)sulfonyl)-8-azabicyclo[3.2.1]octan-3-yl)isoxazole-3-carboxamide]: the IC50 on SMYD3 [1] was found to be 34.7 nM; at SMYD3 [2], 0.71 nM.
The corresponding values for `O=C(N[C@H]1C[C@H]2CC[C@@H](C1)N2S(=O)(=O)N1CC2(CCN(CCc3ccccc3)CC2)C1)c1cc(C2CC2)on1` [compound 769, 5-cyclopropyl-N-((1R,3r,5S)-8-((7-phenethyl-2,7-diazaspiro[3.5]nonan-2-yl)sulfonyl)-8-azabicyclo[3.2.1]octan-3-yl)isoxazole-3-carboxamide] are 17.9 nM and 0.76 nM.
With `CN(C)[C@H]1CC[C@@H](S(=O)(=O)N2[C@@H]3CC[C@H]2C[C@@H](NC(=O)c2cc(C4CC4)on2)C3)CC1` [compound 771, 5-cyclopropyl-N-((1R,3R,5S)-8-(((1s,4S)-4-(dimethylamino)cyclohexyl)sulfonyl)-8-azabicyclo[3.2.1]octan-3-yl)isoxazole-3-carboxamide], the IC50 on SMYD3 [1] was determined as 25.6 nM; at SMYD3 [2], 0.94 nM.
Regarding `C[C@H]1C[C@@H](NC(=O)c2cc(C3CC3)on2)CCN1S(=O)(=O)C[C@H]1CC[C@H](N)C1` [compound 772, N-((2S,4S)-1-((((1S,3S)-3-aminocyclopentyl)methyl)sulfonyl)-2-methylpiperidin-4-yl)-5-cyclopropylisoxazole-3-carboxamide], the half-maximal inhibitory concentration (IC50) on SMYD3 [1] stood at 32.7 nM; on SMYD3 [2], 0.95 nM.
The corresponding values for `C[C@H]1C[C@@H](NC(=O)c2cc(C3CC3)on2)CCN1S(=O)(=O)[C@H]1CC[C@H](N)CC1` [compound 773, N-((2S,4S)-1-(((1r,4S)-4-aminocyclohexyl)sulfonyl)-2-methylpiperidin-4-yl)-5-cyclopropylisoxazole-3-carboxamide] are 17.7 nM and 1.03 nM.
The corresponding values for `C[C@H]1C[C@@H](NC(=O)c2cc(C3CC3)on2)CCN1S(=O)(=O)N1CCC(C)(N)CC1` [compound 774, N-((2S,4S)-1-((4-amino-4-methylpiperidin-l-yl)sulfonyl)-2-methylpiperidin-4-yl)-5-cyclopropylisoxazole-3-carboxamide] are 25.6 nM and 1.04 nM.
The corresponding values for `CC[C@@H]1C[C@H](NC(=O)c2cc(C3CC3)on2)CCN1S(=O)(=O)CC1CCN(C)CC1` [compound 775, 5-cyclopropyl-N-((2R,4R)-2-ethyl-1-(((1-methylpiperidin-4-yl)methyl)sulfonyl)piperidin-4-yl)isoxazole-3-carboxamide] are 14.4 nM and 1.07 nM.
As to `O=C(N[C@H]1C[C@H]2CC[C@@H](C1)N2S(=O)(=O)[C@H]1CC[C@H](NCc2ccccc2)CC1)c1cc(C2CC2)on1` [compound 776, N-((1R,3R,5S)-8-(((1r,4R)-4-(benzylamino)cyclohexyl)sulfonyl)-8-azabicyclo[3.2.1]octan-3-yl)-5-cyclopropylisoxazole-3-carboxamide], the IC50 came to 27.6 nM at SMYD3 [1] and 1.12 nM on SMYD3 [2].
The corresponding values for `CCC[C@@H]1C[C@H](NC(=O)c2cc(C3CC3)on2)CCN1S(=O)(=O)CC1CCN(C)CC1` [compound 777, 5-cyclopropyl-N-((2R,4R)-1-(((1-methylpiperidin-4-yl)methyl)sulfonyl)-2-propylpiperidin-4-yl)isoxazole-3-carboxamide] are 17 nM and 1.14 nM.
The corresponding values for `O=C(N[C@H]1C[C@H]2CC[C@@H](C1)N2S(=O)(=O)CC1CCN(Cc2ccc(F)cc2)CC1)c1cc(C2CC2)on1` [compound 778, 5-cyclopropyl-N-((1R,3r,5S)-8-(((1-(4-fluorobenzyl)piperidin-4-yl)methyl)sulfonyl)-8-azabicyclo[3.2.1]octan-3-yl)isoxazole-3-carboxamide] are 44.8 nM and 1.18 nM.
As for `CCc1cc(C(=O)N[C@H]2C[C@H]3CC[C@@H](C2)N3S(=O)(=O)CC2CCN(CCCC(F)(F)F)CC2)no1` [compound 779, 5-ethyl-N-((1R,3r,5S)-8-(((1-(4,4,4-trifluorobutyl)piperidin-4-yl)methyl)sulfonyl)-8-azabicyclo[3.2.1]octan-3-yl)isoxazole-3-carboxamide], the IC50 on SMYD3 [1] was found to be 28.1 nM; at SMYD3 [2] it was 1.2 nM.
The corresponding values for `C[C@H]1C[C@@H](NC(=O)c2cc(C3CC3)on2)CCN1S(=O)(=O)N1CCC(N(C)CCO)CC1` [compound 780, 5-cyclopropyl-N-((2S,4S)-1-((4-((2-hydroxyethyl)(methyl)amino)piperidin-1-yl)sulfonyl)-2-methylpiperidin-4-yl)isoxazole-3-carboxamide] are 23.9 nM and 1.21 nM.
The corresponding values for `CCCN1CCC(CS(=O)(=O)N2[C@@H]3CC[C@H]2C[C@@H](NC(=O)c2cc(C4CC4)on2)C3)CC1` [compound 781, 5-cyclopropyl-N-((1R,3r,5S)-8-(((1-propylpiperidin-4-yl)methyl)sulfonyl)-8-azabicyclo[3.2.1]octan-3-yl)isoxazole-3-carboxamide] are 27 nM and 1.22 nM.
For the compound `CN1CCC2(CC1)CN(S(=O)(=O)N1[C@@H]3CC[C@H]1C[C@@H](NC(=O)c1cc(C4CC4)on1)C3)C2` [compound 782, 5-cyclopropyl-N-((1R,3r,5S)-8-((7-methyl-2,7-diazaspiro[3.5]nonan-2-yl)sulfonyl)-8-azabicyclo[3.2.1]octan-3-yl)isoxazole-3-carboxamide], the IC50 on SMYD3 [1] worked out at 30.1 nM; on SMYD3 [2], 1.23 nM.
The corresponding values for `C[C@H]1C[C@@H](NC(=O)c2cc(C3CC3)on2)CCN1S(=O)(=O)C1CCC(CN)C1` (stereo partly drawn) [compound 783, N-((2S,4S)-1-((3-(aminomethyl)cyclopentyl)sulfonyl)-2-methylpiperidin-4-yl)-5-cyclopropylisoxazole-3-carboxamide] are 51.7 nM and 1.24 nM.
The corresponding values for `C[C@H]1C[C@@H](NC(=O)c2cc(C3CC3)on2)CCN1S(=O)(=O)C[C@@H]1CC[C@@H](N)C1` [compound 784, N-((2S,4S)-1-((((1R,3R)-3-aminocyclopentyl)methyl)sulfonyl)-2-methylpiperidin-4-yl)-5-cyclopropylisoxazole-3-carboxamide] are 39.3 nM and 1.29 nM.
Take `CCN1CCC(CS(=O)(=O)N2[C@@H]3CC[C@H]2C[C@@H](NC(=O)c2cc(C4CC4)on2)C3)CC1` [compound 785, 5-cyclopropyl-N-((1R,3r,5S)-8-(((1-ethylpiperidin-4-yl)methyl)sulfonyl)-8-azabicyclo[3.2.1]octan-3-yl)isoxazole-3-carboxamide]: the values for the IC50 at SMYD3 [1] and on SMYD3 [2] were 44.1 nM and 1.36 nM, respectively.
The corresponding values for `CN[C@H]1CC[C@H](S(=O)(=O)N2[C@@H]3CC[C@H]2C[C@@H](NC(=O)c2cc(C4CC4)on2)C3)CC1` [compound 786, 5-cyclopropyl-N-((1R,3R,5S)-8-(((1r,4R)-4-(methylamino)cyclohexyl)sulfonyl)-8-azabicyclo[3.2.1]octan-3-yl)isoxazole-3-carboxamide] are 35.8 nM and 1.37 nM.
The corresponding values for `CC(C)N1CCC(CS(=O)(=O)N2[C@@H]3CC[C@H]2C[C@@H](NC(=O)c2cc(C4CC4)on2)C3)CC1` [compound 787, 5-cyclopropyl-N-((1R,3r,5S)-8-(((1-isopropylpiperidin-4-yl)methyl)sulfonyl)-8-azabicyclo[3.2.1]octan-3-yl)isoxazole-3-carboxamide] are 38.6 nM and 1.38 nM.
The corresponding values for `CCc1cc(C(=O)N[C@H]2C[C@H]3CC[C@@H](C2)N3S(=O)(=O)[C@H]2CC[C@H](NCCO)CC2)no1` [compound 788, 5-ethyl-N-((1R,3R,5S)-8-(((1r,4R)-4-((2-hydroxyethyl)amino)cyclohexyl)sulfonyl)-8-azabicyclo[3.2.1]octan-3-yl)isoxazole-3-carboxamide] are 30.8 nM and 1.42 nM.
Turning to `CCc1cc(C(=O)N[C@H]2C[C@H]3CC[C@@H](C2)N3S(=O)(=O)[C@H]2CC[C@H](N)CC2)no1` [compound 789, N-((1R,3R,5S)-8-(((1r,4R)-4-aminocyclohexyl)sulfonyl)-8-azabicyclo[3.2.1]octan-3-yl)-5-ethylisoxazole-3-carboxamide], the IC50 at SMYD3 [1] came to 31.9 nM; on SMYD3 [2] it was 1.59 nM.
The corresponding values for `C[C@H]1CN(S(=O)(=O)[C@H]2CC[C@H](N)CC2)CC[C@H]1NC(=O)c1cc(C2CC2)on1` [compound 790, N-((3S,4R)-1-(((1r,4S)-4-aminocyclohexyl)sulfonyl)-3-methylpiperidin-4-yl)-5-cyclopropylisoxazole-3-carboxamide] are 56 nM and 1.81 nM.
The corresponding values for `O=C(N[C@H]1C[C@H]2CC[C@@H](C1)N2S(=O)(=O)N1CCC(NCCc2ccccc2)CC1)c1cc(C2CC2)on1` [compound 791, 5-cyclopropyl-N-((1R,3r,5S)-8-((4-(phenethylamino)piperidin-1-yl)sulfonyl)-8-azabicyclo[3.2.1]octan-3-yl)isoxazole-3-carboxamide] are 40.4 nM and 1.82 nM.
For `O=C(N[C@H]1C[C@H]2CC[C@@H](C1)N2S(=O)(=O)N1CCC(NCCO)CC1)c1cc(C2CC2)on1` [compound 792, 5-cyclopropyl-N-((1R,3r,5S)-8-((4-((2-hydroxyethyl)amino)piperidin-1-yl)sulfonyl)-8-azabicyclo[3.2.1]octan-3-yl)isoxazole-3-carboxamide], the values for the IC50 at SMYD3 [1] and at SMYD3 [2] were 44.9 nM and 1.85 nM, respectively.
